Values of other authors, collected in patent publication US20080057123A1, “Controlled Release Formulations” (Jagotec AG, priority 2006, published 2008).

## COC(=O)C1=C(C)NC(C)=C(C(=O)OCC(C)C)C1c1ccccc1[N+](=O)[O-] (centres unmarked) [Nisoldipine]
ethanol
  solubility in ethanol: soluble
water
  solubility in water: practically insoluble
